Laboratory results reported in patent publication US9890147B2 (BAYER PHARMA AKTIENGESELLSCHAFT, priority 2012, dated 2018).

Columns and labels:
BRD4 (BD1) = target: T1, BRD4 (BD1) (Homo sapiens, UniProt O60885); test: Binding assay BRD4/acetylated peptide H4 (TR-FRET protein-protein interaction assay)
T1 construct: with relatively long constructs also being possible, preferably amino acids 44-168; made in house; host or cells: E. coli
Summary of the method: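 His6-BRD4 BD1 (aa 67-152, E. coli), usually 10 nM, with biotinylated tetra-acetylated H4 peptide in HEPES pH 7.5 buffer; 11 compound concentrations 0.1 nM–20 μM in duplicate, 10 min preincubation, 1 h at 22 °C then ≥3 h at 4 °C. TR-FRET 665/620 ratio; IC50 by 4-parameter fit.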

MOLM-13 cells = test: Cell proliferation assay (alamarBlue), MOLM-13; assay type: cell-based; conditions: Homo sapiens, 96 hours incubation, inhibition of cell proliferation
Summary of the method: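 Cells in RPMI1640/10% FCS read by alamarBlue fluorescence (ex 530, em 590 nm) after overnight 37 °C incubation, then treated at 1E-5 to 1E-8 M for 96 h. Pre-treatment values subtracted from endpoint values and compared with buffer-only wells; IC50 is 50% proliferation inhibition.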

Row | SMILES | IC50 (BRD4 (BD1)) [nM] | IC50 (MOLM-13 cells) [nM]
1 | CNC(=O)N1N=C(c2ccc(-c3c(C)noc3C)cc2)c2cc(NC(C)=O)ccc2CC1C (racemic) [Example 173, (±)-8-Acetamido-1-[4-(3,5-dimethylisoxazol-4-yl)phenyl]-N,4-dimethyl-4,5-dihydro-3H-2,3-benzodiazepine-3-carboxamide] | 180 | 1210
2 | CNC(=O)N1N=C(c2ccc(-c3c(C)noc3C)cc2)c2cc(-n3nc(C)cc3C)ccc2CC1C (racemic) [Example 175, (±)-1-[4-(3,5-Dimethylisoxazol-4-yl)phenyl]-8-(3,5-dimethyl-1H-pyrazol-1-yl)-N,4-dimethyl-4,5-dihydro-3H-2,3-benzodiazepine-3-carboxamide] | 190 | 440
3 | CNC(=O)N1N=C(c2ccc(-c3c(C)noc3C)cc2)c2cc(N3CCOCC3)ccc2CC1C (racemic) [Example 176, (±)-1-[4-(3,5-Dimethylisoxazol-4-yl)phenyl]-N,4-dimethyl-8-(morpholin-4-yl)-4,5-dihydro-3H-2,3-benzodiazepine-3-carboxamide] | 40 | 520
4 | CNC(=O)N1N=C(c2ccc(N3CCN(CCO)CC3)cc2)c2cc(OC)c(OC)cc2CC1C (racemic) [Example 178, (±)-1-{4-[4-(2-hydroxyethyl)piperazin-1-yl]phenyl}-7,8-dimethoxy-N,4-dimethyl-4,5-dihydro-3H-2,3-benzodiazepine-3-carboxamide] | 70 | 180
5 | CNC(=O)N1N=C(c2ccc(N3CCC(OC)CC3)cc2)c2cc(OC)c(OC)cc2CC1C (racemic) [Example 179, (±)-7,8-dimethoxy-1-[4-(4-methoxypiperidin-1-yl)phenyl]-N,4-dimethyl-4,5-dihydro-3H-2,3-benzodiazepine-3-carboxamide] | 70 | 290
6 | CNC(=O)N1N=C(c2ccc(N3CCC(N(C)C)CC3)cc2)c2cc(OC)c(OC)cc2CC1C (racemic) [Example 180, (±)-1-{4-[4-(dimethylamino)piperidin-1-yl]phenyl}-7,8-dimethoxy-N,4-dimethyl-4,5-dihydro-3H-2,3-benzodiazepine-3-carboxamide] | 70 | 370
7 | CNC(=O)N1N=C(c2ccc(N3CCC(NC(C)=O)CC3)cc2)c2cc(OC)c(OC)cc2CC1C (racemic) [Example 182, (±)-1-[4-(4-acetamidopiperidin-1-yl)phenyl]-7,8-dimethoxy-N,4-dimethyl-4,5-dihydro-3H-2,3-benzodiazepine-3-carboxamide] | 50 | 400
8 | CNC(=O)N1N=C(c2ccc(N3CC[C@H](O)C3)cc2)c2cc(OC)c(OC)cc2CC1C (mixture of isomers) [Example 190, (±)-1-{4-[(3S)-3-hydroxypyrrolidin-1-yl]phenyl}-7,8-dimethoxy-N,4-dimethyl-4,5-dihydro-3H-2,3-benzodiazepine-3-carboxamide] | 90 | 80
9 | CNC(=O)N1N=C(c2ccc(N3CCC(C)(NC(=O)OC(C)(C)C)CC3)cc2)c2cc(OC)c(OC)cc2CC1C (racemic) [Example 191, (±)-tert-butyl (1-{4-[7,8-dimethoxy-4-methyl-3-(methylcarbamoyl)-4,5-dihydro-3H-2,3-benzodiazepin-1-yl]phenyl}-4-methylpiperidin-4-yl)carbamate] | 70 | 170
10 | CNC(=O)N1N=C(c2ccc(N3C[C@@H](C)NC[C@@H]3C)cc2)c2cc(OC)c(OC)cc2CC1C (mixture of isomers) [Example 192, (±)-1-{4-[(2S,5R)-2,5-dimethylpiperazin-1-yl]phenyl}-7,8-dimethoxy-N,4-dimethyl-4,5-dihydro-3H-2,3-benzodiazepine-3-carboxamide] | 90 | 270
11 | CNC(=O)N1N=C(c2ccc(N3CCN(CC(F)F)CC3)cc2)c2cc(OC)c(OC)cc2CC1C (racemic) [Example 193, (±)-1-{4-[4-(2,2-difluoroethyl)piperazin-1-yl]phenyl}-7,8-dimethoxy-N,4-dimethyl-4,5-dihydro-3H-2,3-benzodiazepine-3-carboxamide] | 90 | 110
12 | CCOc1cc2c(cc1OCC)C(c1ccc(N3CCN(C)CC3)cc1)=NN(C(=O)NC)C(C)C2 (racemic) [Example 200, (±)-7,8-Diethoxy-N,4-dimethyl-1-[4-(4-methylpiperazin-1-yl)phenyl]-4,5-dihydro-3H-2,3-benzodiazepine-3-carboxamide] | 500 | 180
13 | CCC1Cc2cc(OC)c(OC)cc2C(c2ccc(N3CCN(S(C)(=O)=O)CC3)cc2)=NN1C(=O)NC (racemic) [Example 203, (±)-4-ethyl-7,8-dimethoxy-N-methyl-1-{4-[4-(methylsulphonyl)piperazin-1-yl]phenyl}-4,5-dihydro-3H-2,3-benzodiazepine-3-carboxamide] | 840 | 3310
14 | CNC(=O)N1N=C(c2ccc(N3CCS(=O)(=O)CC3)cc2)c2cc(Cl)c(OC(F)(F)F)cc2CC1C (racemic) [Example 210, (±)-8-chloro-1-[4-(1,1-dioxidothiomorpholin-4-yl)phenyl]-N,4-dimethyl-7-(trifluoromethoxy)-4,5-dihydro-3H-2,3-benzodiazepine-3-carboxamide] | 250 | 170
15 | CNC(=O)N1N=C(c2ccc(N3CCC(O)CC3)cc2)c2cc(Cl)c(OC(F)(F)F)cc2CC1C (racemic) [Example 212, (±)-8-chloro-1-[4-(4-hydroxypiperidin-1-yl)phenyl]-N,4-dimethyl-7-(trifluoromethoxy)-4,5-dihydro-3H-2,3-benzodiazepine-3-carboxamide] | 310 | 820
16 | CNC(=O)N1N=C(c2ccc(N3CCN(C)CC3)cc2)c2cc(Cl)c(OC(F)(F)F)cc2CC1C (racemic) [Example 213, (±)-8-chloro-N,4-dimethyl-1-[4-(4-methylpiperazin-1-yl)phenyl]-7-(trifluoromethoxy)-4,5-dihydro-3H-2,3-benzodiazepine-3-carboxamide] | 360 | 860
17 | CNC(=O)N1N=C(c2ccc(N3CCS(=O)(=O)CC3)cc2)c2cc(N3CCS(=O)(=O)CC3)c(OC(F)(F)F)cc2CC1C (racemic) [Example 215, (±)-8-(1,1-dioxidothiomorpholin-4-yl)-1-[4-(1,1-dioxidothiomorpholin-4-yl)phenyl]-N,4-dimethyl-7-(trifluoromethoxy)-4,5-dihydro-3H-2,3-benzodiazepine-3-carboxamide] | 380 | 2270
18 | CNC(=O)N1N=C(c2ccc(Cl)cc2)c2cc(N3CCS(=O)(=O)CC3)c(OC(F)(F)F)cc2CC1C (racemic) [Example 216, (±)-1-(4-chlorophenyl)-8-(1,1-dioxidothiomorpholin-4-yl)-N,4-dimethyl-7-(trifluoromethoxy)-4,5-dihydro-3H-2,3-benzodiazepine-3-carboxamide] | 520 | 1030
19 | CNC(=O)N1N=C(c2ccc(N3CCN(CCO)CC3)cc2)c2ccc(OC(F)(F)F)cc2CC1C (racemic) [Example 218, (±)-1-{4-[4-(2-hydroxyethyl)piperazin-1-yl]phenyl}-N,4-dimethyl-7-(trifluoromethoxy)-4,5-dihydro-3H-2,3-benzodiazepine-3-carboxamide] | 880 | 300
20 | CNC(=O)N1N=C(c2ccc(N3CCN(C)CC3)cc2)c2cc(OC)c(OC(F)(F)F)cc2CC1C (racemic) [Example 219, (±)-8-methoxy-N,4-dimethyl-1-[4-(4-methylpiperazin-1-yl)phenyl]-7-(trifluoromethoxy)-4,5-dihydro-3H-2,3-benzodiazepine-3-carboxamide] | 370 | 570
21 | CCC1Cc2cc(OC)c(OC)cc2C(c2ccc(-c3c(C)nn(C)c3C)cc2)=NN1C(=O)NC (racemic) [Example 220, (±)-4-ethyl-7,8-dimethoxy-N-methyl-1-[4-(1,3,5-trimethyl-1H-pyrazol-4-yl)phenyl]-4,5-dihydro-3H-2,3-benzodiazepine-3-carboxamide] | 490 | 2400
22 | CCC1Cc2cc(OC)c(OC)cc2C(c2ccc(-c3cn(C)nn3)cc2)=NN1C(=O)NC (racemic) [Example 222, (±)-4-ethyl-7,8-dimethoxy-N-methyl-1-[4-(1-methyl-1H-1,2,3-triazol-4-yl)phenyl]-4,5-dihydro-3H-2,3-benzodiazepine-3-carboxamide] | 960 | 2120
23 | CNC(=O)N1N=C(c2ccc(Cl)cc2)c2ccc(N3CCOC3=O)cc2CC1C (racemic) [Example 230, (±)-1-(4-chlorophenyl)-N,4-dimethyl-7-(2-oxo-1,3-oxazolidin-3-yl)-4,5-dihydro-3H-2,3-benzodiazepine-3-carboxamide] | 240 | 230
24 | CNC(=O)N1N=C(c2ccc(Cl)cc2)c2ccc(-c3cn(C)nn3)cc2CC1C (racemic) [Example 243, (±)-1-(4-chlorophenyl)-N,4-dimethyl-7-(1-methyl-1H-1,2,3-triazol-4-yl)-4,5-dihydro-3H-2,3-benzodiazepine-3-carboxamide] | 320 | 340
25 | COc1cc2c(cc1OC)C(c1ccc(N3CCN(C)CC3)cc1)=NN(C(C)=O)C(C)C2 (racemic) [Example 245, (±)-1-{7,8-Dimethoxy-4-methyl-1-[4-(4-methylpiperazin-1-yl)phenyl]-4,5-dihydro-3H-2,3-benzodiazepin-3-yl}ethanone] | 620 | 860
26 | COc1cc2c(cc1OC)C(c1ccc(-c3c(C)noc3C)cc1)=NN(C(C)=O)C(C)C2 (racemic) [Example 246, (±)-1-{1-[4-(3,5-dimethyl-1,2-oxazol-4-yl)phenyl]-7,8-dimethoxy-4-methyl-4,5-dihydro-3H-2,3-benzodiazepin-3-yl}ethanone] | 330 | 2060
